Assay results as given in the supplement of paper PMC10307832.

Key:
Test in all cases: relative viability (nuclei count vs DMSO), 5 days (fraction); higher = more cells survive
[1] = tested on: 201T
Method in brief: (§1)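 Lung cancer cell lines were pin-tool dosed in 1536-well plates on the day after seeding, with either a lone drug or a fixed anchor-drug dose plus five library-drug doses (not always all listed) in √10 steps. Nuclei were counted on 4× images after 5 days. Relative viability is the ratio of treated-well to vehicle-well nuclei counts, with each value a median of duplicate plates.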

[2] = tested on: A-427
Method in brief: as §1

[3] = tested on: BEN
Method in brief: as §1

[4] = tested on: COR-L23
Method in brief: as §1

[5] = tested on: EKVX
Method in brief: as §1

[6] = tested on: EMC-BAC-2
Method in brief: as §1

[7] = tested on: EPLC-272H
Method in brief: as §1

[8] = tested on: HCC-44
Method in brief: as §1

[9] = tested on: HCC-827
Method in brief: as §1

[10] = tested on: LCLC-103H
Method in brief: as §1

[11] = tested on: LK-2
Method in brief: as §1

[12] = tested on: LXF-289
Method in brief: as §1

[13] = tested on: NCI-H1650
Method in brief: as §1

[14] = tested on: NCI-H1651
Method in brief: as §1

[15] = tested on: NCI-H1793
Method in brief: as §1

[16] = tested on: NCI-H1915
Method in brief: as §1

[17] = tested on: NCI-H2087
Method in brief: as §1

[18] = tested on: NCI-H2126
Method in brief: as §1

[19] = tested on: NCI-H2347
Method in brief: as §1

[20] = tested on: NCI-H358
Method in brief: as §1

[21] = tested on: NCI-H460
Method in brief: as §1

[22] = tested on: NCI-H596
Method in brief: as §1

[23] = tested on: SW 1573
Method in brief: as §1

O=C(O)CCCCC(CCSCc1ccccc1)SCc1ccccc1 (stereo not given) [CPI-613] + O=C(CCCCCCC(=O)Nc1ccccc1)NO [Vorinostat] (partner 1 µM) gave a relative viability ([1]; first compound 5 µM) of 0.961, a relative viability ([1]; first compound 15.81 µM) of 0.865 and a relative viability ([1]; first compound 50 µM) of 0.958. It also gave a relative viability ([1]; first compound 158.11 µM) of 0.328, a relative viability ([1]; first compound 500 µM) of 0.368 and a relative viability ([2]; first compound 5 µM) of 0.884. For the same compound, the relative viability ([2]; first compound 15.81 µM) was 0.822, the relative viability ([2]; first compound 50 µM) was 0.827 and the relative viability ([2]; first compound 158.11 µM) was 0.726. It also gave a relative viability ([2]; first compound 500 µM) of 0.492, a relative viability ([3]; first compound 5 µM) of 0.491 and a relative viability ([3]; first compound 15.81 µM) of 0.529. The relative viability ([3]; first compound 50 µM) was 0.558, the relative viability ([3]; first compound 158.11 µM) was 0.593 and the relative viability ([3]; first compound 500 µM) was 0.607. It also gave a relative viability ([4]; first compound 5 µM) of 0.42, a relative viability ([4]; first compound 15.81 µM) of 0.387 and a relative viability ([4]; first compound 50 µM) of 0.371. The relative viability ([4]; first compound 158.11 µM) was 0.125, the relative viability ([4]; first compound 500 µM) was 0.0123 and the relative viability ([5]; first compound 5 µM) was 0.695. The relative viability ([5]; first compound 15.81 µM) was 0.668, the relative viability ([5]; first compound 50 µM) was 0.637 and the relative viability ([5]; first compound 158.11 µM) was 0.258. It also gave a relative viability ([5]; first compound 500 µM) of 0.429, a relative viability ([6]; first compound 5 µM) of 0.499 and a relative viability ([6]; first compound 15.81 µM) of 0.339. It also gave a relative viability ([6]; first compound 50 µM) of 0.469, a relative viability ([6]; first compound 158.11 µM) of 0.356 and a relative viability ([6]; first compound 500 µM) of 0.0895. It also gave a relative viability ([7]; first compound 5 µM) of 0.509, a relative viability ([7]; first compound 15.81 µM) of 0.406 and a relative viability ([7]; first compound 50 µM) of 0.268. For the same compound, the relative viability ([7]; first compound 158.11 µM) was 0.0975, the relative viability ([7]; first compound 500 µM) was 0.0196 and the relative viability ([8]; first compound 5 µM) was 1.01. For the same compound, the relative viability ([8]; first compound 15.81 µM) was 1.11, the relative viability ([8]; first compound 50 µM) was 1.08 and the relative viability ([8]; first compound 158.11 µM) was 0.579. The relative viability ([8]; first compound 500 µM) was 0.265, the relative viability ([9]; first compound 5 µM) was 0.769 and the relative viability ([9]; first compound 15.81 µM) was 0.703. It also gave a relative viability ([9]; first compound 50 µM) of 0.773, a relative viability ([9]; first compound 158.11 µM) of 0.497 and a relative viability ([9]; first compound 500 µM) of 0.656. It also gave a relative viability ([10]; first compound 5 µM) of 0.731, a relative viability ([10]; first compound 15.81 µM) of 0.662 and a relative viability ([10]; first compound 50 µM) of 0.771. For the same compound, the relative viability ([10]; first compound 158.11 µM) was 0.683, the relative viability ([10]; first compound 500 µM) was 0.207 and the relative viability ([11]; first compound 5 µM) was 0.333. It also gave a relative viability ([11]; first compound 15.81 µM) of 0.278, a relative viability ([11]; first compound 50 µM) of 0.344 and a relative viability ([11]; first compound 158.11 µM) of 0.553. For the same compound, the relative viability ([11]; first compound 500 µM) was 0.28, the relative viability ([12]; first compound 5 µM) was 0.699 and the relative viability ([12]; first compound 15.81 µM) was 0.707. For the same compound, the relative viability ([12]; first compound 50 µM) was 0.722, the relative viability ([12]; first compound 158.11 µM) was 0.483 and the relative viability ([12]; first compound 500 µM) was 0.567. For the same compound, the relative viability ([13]; first compound 5 µM) was 0.521, the relative viability ([13]; first compound 15.81 µM) was 0.469 and the relative viability ([13]; first compound 50 µM) was 0.507. The relative viability ([13]; first compound 158.11 µM) was 0.142, the relative viability ([13]; first compound 500 µM) was 0.0205 and the relative viability ([14]; first compound 5 µM) was 0.583. The relative viability ([14]; first compound 15.81 µM) was 0.528, the relative viability ([14]; first compound 50 µM) was 0.528 and the relative viability ([14]; first compound 158.11 µM) was 0.438. It also gave a relative viability ([14]; first compound 500 µM) of 0.542, a relative viability ([15]; first compound 5 µM) of 0.781 and a relative viability ([15]; first compound 15.81 µM) of 0.559. It also gave a relative viability ([15]; first compound 50 µM) of 0.754, a relative viability ([15]; first compound 158.11 µM) of 0.424 and a relative viability ([15]; first compound 500 µM) of 0.0086. For the same compound, the relative viability ([16]; first compound 5 µM) was 0.502, the relative viability ([16]; first compound 15.81 µM) was 0.54 and the relative viability ([16]; first compound 50 µM) was 0.488. For the same compound, the relative viability ([16]; first compound 158.11 µM) was 0.467, the relative viability ([16]; first compound 500 µM) was 0.0403 and the relative viability ([17]; first compound 5 µM) was 0.817. The relative viability ([17]; first compound 15.81 µM) was 0.725, the relative viability ([17]; first compound 50 µM) was 0.689 and the relative viability ([17]; first compound 158.11 µM) was 0.374. It also gave a relative viability ([17]; first compound 500 µM) of 0.0093, a relative viability ([18]; first compound 5 µM) of 0.743 and a relative viability ([18]; first compound 15.81 µM) of 0.68. It also gave a relative viability ([18]; first compound 50 µM) of 0.831, a relative viability ([18]; first compound 158.11 µM) of 0.342 and a relative viability ([18]; first compound 500 µM) of 0.179. It also gave a relative viability ([19]; first compound 5 µM) of 0.513, a relative viability ([19]; first compound 15.81 µM) of 0.494 and a relative viability ([19]; first compound 50 µM) of 0.596. It also gave a relative viability ([19]; first compound 158.11 µM) of 0.387, a relative viability ([19]; first compound 500 µM) of 0.235 and a relative viability ([20]; first compound 5 µM) of 0.683. The relative viability ([20]; first compound 15.81 µM) was 0.561, the relative viability ([20]; first compound 50 µM) was 0.62 and the relative viability ([20]; first compound 158.11 µM) was 0.0809. The relative viability ([20]; first compound 500 µM) was 0.0166, the relative viability ([21]; first compound 5 µM) was 0.698 and the relative viability ([21]; first compound 15.81 µM) was 0.553. For the same compound, the relative viability ([21]; first compound 50 µM) was 0.718, the relative viability ([21]; first compound 158.11 µM) was 0.0356 and the relative viability ([21]; first compound 500 µM) was 0.008. For the same compound, the relative viability ([22]; first compound 5 µM) was 0.471, the relative viability ([22]; first compound 15.81 µM) was 0.621 and the relative viability ([22]; first compound 50 µM) was 0.766. It also gave a relative viability ([22]; first compound 158.11 µM) of 0.3, a relative viability ([22]; first compound 500 µM) of 0.061 and a relative viability ([23]; first compound 5 µM) of 0.749. It also gave a relative viability ([23]; first compound 15.81 µM) of 0.635, a relative viability ([23]; first compound 50 µM) of 0.456 and a relative viability ([23]; first compound 158.11 µM) of 0.165. The relative viability ([23]; first compound 500 µM) was 0.0536.
